Patent US5739300A, “Antiadhesive piperidine-and pyrrolidinecarboxylic acids” (Hoechst Aktiengesellschaft, priority 1995, dated 1998)

Legend:
[1] = target: T1, E-selectin (Homo sapiens, UniProt P16581); experiment: HL60 cell adhesion assay on recombinant, soluble E-selectin-IgG1 fusion protein; format: cell-based; settings: read-out: IC 50 values for E-selectin
T1 construct: genetically engineered soluble fusion proteins from the extracytoplasmic domain of E- or P-selectin in each case; made in house; host or cells: COS-7 cells (ATCC), transiently transfected; culture supernatant captured on anti-human IgG
From the text: (§1) Primary assays for the investigation of the action of the compounds of the present invention for cell adhesion to recombinant, soluble selectin fusion proteins.
(§2) In order to test the activity of the compounds according to the invention on the interaction between the E- and P-selectins (old nomenclature ELAM-1 and GMP-140) with their ligands, an assay is used which is only specific for one of these interactions in each case. The ligands are supplied in their natural form as surface structures on promyelocytic HL60 cells. As HL60 cells have ligands and adhesion molecules of very different specificity, the desired specificity of the assay can only be produced by means of the binding component. The binding components used were genetically engineered soluble fusion proteins from the extracytoplasmic domain of E- or P-selectin in each case and the constant region of a human immunoglobulin of the subclass IgG1.
Preparation of L-selectin-IgG1
To prepare soluble L-selectin-IgG1 fusion protein, the genetic construct "ELAM-Rg" published by Walz et al., 1990 was used.
For expression, the plasmid DNA was transfected in COS-7 cells (ATCC) by means of DEAE-dextran (Molecular biological methods: see Ausubel, F. M., Brent, R., Kingston, R. E., Moore, D. D., Seidman, J. G., Struhl, K. and Smith, J. A. 1990. Current Protocols in Molecular Biology, John Wiley, New York). Seven days after transfection, the culture supernatant is recovered, freed from cells and cell fragments by centrifugation and transferred to 25 mM HEPES pH 7.0, 0.3 mM PMSF, 0.02% sodium azide and kept at +4° C. (Walz, G., Aruffo, A., Kolanus, W., Bevilacqua, M. and Seed, B. 1990. Recognition by ELAM-1 of the sialyl-Lex determinant on myeloid and tumor cells. Science 250, 1132-1135.)
(§3) Carrying out the HL60 cell adhesion assays on recombinant, soluble adhesion molecules
(§4) 1. 96-well microtiter test plates (Nunc Maxisorb) are incubated at room temperature for 2 hours with 100 μl of a goat anti-human IgG antibody (Sigma) diluted (1+100) in 50 mM tris pH 9.5. After removing the antibody solution, washing is carried out once with PBS.
(§5) 2. 150 μl of the blocking buffer are left in the wells for 1 hour at room temperature. The composition of the blocking buffer is: 0.1% gelatin, 1% BSA, 5% calf serum, 0.2 mM PMSF, 0.02% sodium azide. After removing the blocking buffer, washing is carried out once with PBS.
(§6) 3. 100 μl each of cell culture supernatant of correspondingly transfected and expressing COS cells are pipetted into the wells, Incubation is carried out for 2 hours at room temperature. After removing the cell culture supernatant, washing is carried out once with PBS.
4. 20 μl of binding buffer are added to the wells. […]

[2] = test system: P-selectin; experiment: HL60 cell adhesion assay on recombinant, soluble P-selectin-IgG1 fusion protein; format: cell-based; settings: read-out: IC 50 values for P-selectin
From the text: as §1, §2
Preparation of P-selectin-IgG1
To prepare the soluble P-selectin-lgG1 fusion protein, the genetic construct "CD62Rg" published by Aruffo et al., 1991 is used. The further procedure corresponds to the preparation of L-selectin-IgG1 presented under A1.
Aruffo, A., Kolanus, W., Walz, G., Fredman, P. and Seed, B. 1991. CD62/-P-Selectin recognition of myeloid and tumor cell sulfatides. Cell 67, 35-44.
as §3, §4, §5, §6
4. 20 μl of binding buffer are added to the wells. The binding buffer has the composition: 50 mM HEPES, pH 7.5; 100 mM NaCl; 1 mg/ml BSA; 2 mM MgCl2; 1 mM CaCl2; 3 mM MnCl2; 0.02% sodium azide; 0.2 mM PMSF. To do this, 5 μl of the test substance are pipetted, mixed by swirling the plate and incubated at room temperature for 10 min.
5. 50 ml of a HL60 cell culture having 200,000 cells/ml are centrifuged at 350 g for 4 min. The pellet is resuspended in 10 ml of RPMI 1640 and the cells are centrifuged again. […]

[3] = test system: adhesion of leukocytes to the endothelium; experiment: Leukocyte adhesion in vivo, intravital microscopy in the rat (mesenterium, LPS-induced); settings: SPRD (m) rat, LPS 15 mg/kg, vs untreated control
From the text: Leukocyte adhesion--Testing of the activity of the compounds according to the invention in vivo (intravital microscopy in the rat):
The induced adhesion of leukocytes is quantified in the mesenterium of the rat using an intravital microscopic investigation technique (Atherton A. and Born G. V. R., Quantitative investigations of the adhesiveness of circulating polymorphonuclear leukocytes to blood vessel walls. J. Physiol. 222, 447-474, 1972; Seiffge, D. Methoden zur Untersuchung der Rezeptor-vermittelten Interaktion zwischen Leukozyten und Endothelzellen im Entzundungsgeschehen [Methods for investigation of the receptor-mediated interaction between leukocytes and endothelial cells in inflammatory phenomena], in: Ersatz- und Erganzungsmethoden zu Tierversuchen in der biomedizinischen Forschung [Substitution and replacement methods for animal experiments in biomedical research], Schoffl, H. et al., (ed.) Springer, 1995 (in print)). Lasting anesthesia is initiated under inhalation ether anesthesia by intramuscular injection of urethane ([…] of body weight). After exposing vessels (femoral vein for the injection of substances and carotid artery for blood pressure measurement), catheters are tied into them. After this, the corresponding transparent tissue (mesenterium) is exposed by the standard methods known in the literature and arranged on the microscope stage and coated with warm liquid paraffin at 37° C. (Menger, M. D. and Lehr, H, A., Scope and perspectives of intravital microscopy-bridge over from in vitro to in vivo, Immunology Today 14, 519-522, 1993). […] The increased adhesion of leukocytes to the endothelium caused by this means is quantified by direct vital microscopy or with the aid of fluorescent dyes. All measuring operations are recorded by video camera and stored on a video recorder. Over a period of 60 minutes, the number of rolling leukocytes (i.e. all visibly rolling leukocytes which are slower than the flowing erythrocytes) and the number of leukocytes adhering to the endothelium (residence period longer than 5 seconds) is determined every 10 minutes. […]

[4] = test system: open rabbit heart perfused with leukocytes; experiment: Reperfusion model: adhesion of neutrophils in ischemia/reperfusion on the open rabbit heart (Langendorff)
Method: Reperfusion model for investigation of the effects of the adhesion of neutrophils in the course of ischemia/reperfusion on the open rabbit heart
The hearts are perfused at constant pressure according to the Langendorff technique with nutrient solution and also with/without leukocytes or active compound. Ischemia is then produced by tying off the left coronary artery (30 min). After reperfusion (30 min), the leukocyte accumulation is histologically assessed. In the course of the experiment, potentials and arrhythmias are additionally measured on 256 electrodes (total time of experiment about 90 min).

T1 sequence (P16581 with tags, fused parts or gaps): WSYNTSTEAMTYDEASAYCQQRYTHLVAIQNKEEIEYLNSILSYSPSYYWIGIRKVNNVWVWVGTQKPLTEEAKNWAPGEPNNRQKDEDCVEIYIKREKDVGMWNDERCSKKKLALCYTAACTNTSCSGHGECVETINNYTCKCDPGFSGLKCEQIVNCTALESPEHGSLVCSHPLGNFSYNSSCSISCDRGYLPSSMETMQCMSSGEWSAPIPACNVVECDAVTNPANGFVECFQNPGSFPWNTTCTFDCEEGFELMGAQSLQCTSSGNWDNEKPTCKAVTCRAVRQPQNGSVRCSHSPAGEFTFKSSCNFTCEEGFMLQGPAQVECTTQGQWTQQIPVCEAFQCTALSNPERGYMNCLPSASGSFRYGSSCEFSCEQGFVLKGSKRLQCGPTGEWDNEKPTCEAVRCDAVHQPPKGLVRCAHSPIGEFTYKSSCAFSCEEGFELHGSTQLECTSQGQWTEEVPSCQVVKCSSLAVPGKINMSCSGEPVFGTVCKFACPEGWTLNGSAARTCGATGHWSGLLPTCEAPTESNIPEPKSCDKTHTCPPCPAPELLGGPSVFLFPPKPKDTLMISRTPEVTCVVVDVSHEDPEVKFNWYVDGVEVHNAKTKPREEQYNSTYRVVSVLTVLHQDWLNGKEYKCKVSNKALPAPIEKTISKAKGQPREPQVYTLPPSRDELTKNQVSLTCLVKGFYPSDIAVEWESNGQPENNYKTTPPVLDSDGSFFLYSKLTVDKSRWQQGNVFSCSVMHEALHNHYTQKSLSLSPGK

Row | Compound | IC50 [1] | IC50 [2] | inhibition (of leukocyte adhesion) ([3]; 1 mg/kg i.v.) | inhibition (of leukocyte adhesion) ([3]; 5 mg/kg i.v.) | inhibition (of leukocyte adhesion) ([3]; 10 mg/kg i.v.) | reduction of arrhythmias ([4]; in the range from about 1 μM) | leukocyte accumulation and arrhythmias ([4]; hearts perfused with leukocytes and active compound, vs untreated hearts)
1 | C[C@@H]1O[C@@H](O[C@@H]2CCCC[C@H]2OC(=O)N2CCC(C(=O)O)CC2)[C@@H](O)[C@H](O)[C@@H]1O [Compound 3a, N-Carbonyl-4-carboxypiperidyl-(1→2)-[(α-L-fucopyranosyl)-(1→1)]-(1R, 2R)-trans-1,2-cyclohexanediol] | > 2000 µM | > 2000 µM | 64% | 69% | 81% | considerable reduction of arrhythmias | 
2 | chondroitin sulfate [reference compound] |  |  |  |  |  |  | reduced leukocyte accumulation and arrhythmias
3 | C[C@@H]1O[C@@H](O[C@@H]2CCC[C@H]2OC(=O)N2CCC(C(=O)O)CC2)[C@@H](O)[C@H](O)[C@@H]1O [Compound 1e, N-Carbonyl-4-carboxypiperidyl-(1→2)-[(α-L-fucopyranosyl)-(1→1)]-(1R, 2R)-trans-1,2-cyclopentanediol] | 3700 µM | 2850 µM |  |  |  |  | 

More lines, main results first:

Row | IC50 [1] | IC50 [2] | Compound | inhibition (of leukocyte adhesion) ([3]; 1 mg/kg i.v.) | inhibition (of leukocyte adhesion) ([3]; 5 mg/kg i.v.) | inhibition (of leukocyte adhesion) ([3]; 10 mg/kg i.v.) | reduction of arrhythmias ([4]; in the range from about 1 μM) | leukocyte accumulation and arrhythmias ([4]; hearts perfused with leukocytes and active compound, vs untreated hearts)
4 | > 2000 µM | > 2000 µM | C[C@@H]1O[C@@H](O[C@@H]2CCCC[C@H]2OC(=O)N2CCCC(CC(C(=O)O)C(=O)O)C2)[C@@H](O)[C@H](O)[C@@H]1O (stereo partly drawn) [Compound 4b, [N-Carbonyl-(1,1-dicarboxyl-ethyl)-(2→3)-piperidyl]-(1→2)-[(α-L-fuco-pyranosyl)-(1→1)]-(1R, 2R)-trans-1,2-cyclohexanediol] |  |  |  |  | 
5 | 1600 µM | 7500 µM | C[C@@H]1O[C@@H](O[C@@H]2CCCC[C@H]2OC(=O)N2CCC(C(=O)O)(C(=O)O)CC2)[C@@H](O)[C@H](O)[C@@H]1O [Compound 3e, N-Carbonyl-4,4-dicarboxypiperidyl-(1→2)-[(α-L-fucopyranosyl)-(1→1)]-(1R, 2R)-trans-1,2-cyclohexanediol] |  |  |  |  | 
